Tests used:
Pseudomonas aeruginosa = conditions: cited from earlier work
S. aureus = assay: Growth of microbial modulator alone on antibiotic-supplemented Columbia agar; format: cell-based; conditions: Bacterial set #3; Ceftazidime (2 μg/mL); Columbia agar with erythrocytes 5%, 24 h at 37 C
[1] = system: MIX—PP +BM (P. aeruginosa with microbial modulators); assay: Growth of mix PP + MM (original sputum) on antibiotic-supplemented Columbia agar; format: cell-based; conditions: Bacterial set #3; Ceftazidime (2 μg/mL); Columbia agar with erythrocytes 5%, 24 h at 37 C
[2] = system: bacteria of sputum from patients with lung diseases; assay: Sputum plated on 24-well plates with antibiotics at Cmax or C0-4 h, Algorithm #1 or #2; format: cell-based; further: key: '+'—presence of bacterial growth, antibiotic ineffective; '−'—absence of bacterial growth, antibiotic effective
Experimental: Pathological material (sputum) from patients with lung diseases was plated into wells of 24-well plates filled with a nutrient medium supplemented with erythrocytes 5%, to which antibiotics were added taken at different concentrations.
Group #1—antibiotics were taken at concentrations close to a maximum (peak) concentration achievable at the site of infection Cmax
Algorithm #1. Lab technician, analyzed the appearance of bacterial growth by comparing the signs of bacterial growth in each well supplemented with antibiotic(s) at certain timepoint, with the signs of bacterial growth in the same well at previous time point(s).
Algorithm #2. Lab technician analyzed the appearance of bacterial growth by comparing the signs of bacterial growth in each well supplemented with antibiotic(s) with bacterial growth in antibiotic-free control

[3] = system: bacteria of sputum from patients with lung diseases; assay: Standard antibiotic susceptibility study using the microbroth dilution method (Algorithm #3); format: cell-based; further: key: '+'—presence of bacterial growth, antibiotic ineffective; '−'—absence of bacterial growth, antibiotic effective
Description: Algorithm #3—Standard antibiotic susceptibility study using the microbroth dilution method.

P. aeruginosa = assay: Growth of primary pathogen alone on antibiotic-supplemented Columbia agar; format: cell-based; conditions: Bacterial set #3; Ceftazidime (2 μg/mL); Columbia agar with erythrocytes 5%, 24 h at 37 C
Experimental: Four sputum samples from patients with lung infections were used. Pure bacterial culture of each microorganisms was obtained by routine microbiological methods.
In this case this antibiotic at MIC of 16 ug/mL was used in the following studies. PP alone, or Microbial Modulators (MM) alone or the original sputum were plated on the wells of 24 well plate filled with nutrient Columbia agar supplemented with erythrocytes 5% and supplemented with antibiotics taken as MIC determined against PP, but not more than 16 μg/mL and incubated 24 h at 37 C.

B. thailandensis = format: cell-based; conditions: Bacterial set #3; Ceftazidime (2 μg/mL); Columbia agar with erythrocytes 5%, 24 h at 37 C

Compound | activity against Pseudomonas aeruginosa according to standard micro-broth dilution method (Pseudomonas aeruginosa) | microbial growth, SA (BM alone) (S. aureus) | Presence of PP in Mix (PP + MM) [1] | ATB efficacy ([2]; Algorithm #1, antibiotic at C0-4 h) | ATB efficacy ([2]; Algorithm #1, antibiotic at Cmax) | ATB efficacy ([2]; Algorithm #2, antibiotic at C0-4 h) | ATB efficacy ([2]; Algorithm #2, antibiotic at Cmax) | ATB efficacy [3] | microbial growth, PA (PP alone) (P. aeruginosa) | microbial growth, BT (BM alone) (B. thailandensis)
CC1=C(C(=O)O)N2C(=O)[C@@H](NC(=O)[C@H](N)c3ccccc3)[C@H]2SC1 [Cephalexin] | not active |  |  |  |  |  |  |  |  | 
CC(C)(O/N=C(\C(=O)N[C@@H]1C(=O)N2C(C(=O)[O-])=C(C[n+]3ccccc3)CS[C@H]12)c1csc(N)n1)C(=O)O [Ceftazidime] |  | + | − | + | + | + | + | + | + | +
